Experimental data: patent US20220387611A1, “METHODS FOR TREATING CANCER” (BicycleRD Limited, priority 2019, published 2022)
Starred links: 1 amine or outer side, 2 acyl side, 3 side chain; linkers in the order of their positions; H or OH if unused. Positions of bridges follow the written chain, without caps; N, C: chain ends. Non-standard residues stand in square brackets, D forms with d. Residues, ends and D or L forms follow the SMILES beside them. 1Nal = N[C@@H](Cc1cccc2ccccc12)C(=O)O; TBMB = c1c(C[*:1])cc(C[*:3])cc1C[*:2]; Tle = CC(C)(C)[C@H](N)C(=O)O; βAla = NCCC(=O)O; Sar = CNCC(=O)O

Tests used:
MMP2 [1] = target: T1, MMP2 (Homo sapiens, UniProt P08253); experiment: Binding to related MMP family member
T1 sequence (P08253 110-660): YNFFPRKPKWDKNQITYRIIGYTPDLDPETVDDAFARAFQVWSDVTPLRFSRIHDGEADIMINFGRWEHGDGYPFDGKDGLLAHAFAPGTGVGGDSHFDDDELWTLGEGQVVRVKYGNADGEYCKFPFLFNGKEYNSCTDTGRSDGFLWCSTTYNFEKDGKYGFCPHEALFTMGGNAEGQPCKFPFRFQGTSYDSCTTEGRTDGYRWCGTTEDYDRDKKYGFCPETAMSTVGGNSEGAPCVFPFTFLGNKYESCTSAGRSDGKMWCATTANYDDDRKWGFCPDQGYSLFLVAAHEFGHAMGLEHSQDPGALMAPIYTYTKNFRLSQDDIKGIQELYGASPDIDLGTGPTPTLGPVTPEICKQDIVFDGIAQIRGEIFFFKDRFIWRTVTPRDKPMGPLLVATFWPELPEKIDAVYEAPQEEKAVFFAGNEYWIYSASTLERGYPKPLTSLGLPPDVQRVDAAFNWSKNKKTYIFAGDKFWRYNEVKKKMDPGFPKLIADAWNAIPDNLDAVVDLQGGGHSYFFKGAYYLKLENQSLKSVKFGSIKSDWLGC

MMP24 = MMP24 (Homo sapiens, UniProt Q9Y5R2); experiment: Binding to related MMP family member
MMP9 = MMP9 (Homo sapiens, UniProt P14780); experiment: Effect on related MMP catalytic activity; format: biochemical; conditions: in vitro
[2] = test system: cell migration or invasion; experiment: Effect on cell migration or invasion; format: cell-based; conditions: in vitro
Pro-MMP1 = target: T2, Pro-MMP1 (Homo sapiens, UniProt P03956); experiment: Binding to related MMP family member
T2 construct: MMP family members tested (MMP15, MMP16, MMP24, MMP1, Pro-MMP1, MMP2)
T2 sequence (P03956 20-469 limits assumed): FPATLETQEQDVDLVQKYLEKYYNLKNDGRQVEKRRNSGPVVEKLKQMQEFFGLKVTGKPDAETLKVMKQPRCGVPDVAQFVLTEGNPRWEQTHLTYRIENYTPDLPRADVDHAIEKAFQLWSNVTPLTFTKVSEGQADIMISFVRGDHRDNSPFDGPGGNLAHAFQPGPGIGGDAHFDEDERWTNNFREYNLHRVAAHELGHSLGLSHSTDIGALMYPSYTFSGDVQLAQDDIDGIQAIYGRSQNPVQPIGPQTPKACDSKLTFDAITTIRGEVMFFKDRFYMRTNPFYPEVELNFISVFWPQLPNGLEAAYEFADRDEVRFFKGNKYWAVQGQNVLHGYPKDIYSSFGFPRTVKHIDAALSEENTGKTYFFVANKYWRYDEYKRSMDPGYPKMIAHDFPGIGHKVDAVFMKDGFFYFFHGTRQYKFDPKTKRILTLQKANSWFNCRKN

MT1 = MT1 (Homo sapiens, UniProt P50281); experiment: Effect on catalytic activity of the protease in vitro; format: biochemical
catalytic domain of MT1 = catalytic domain of MT1 (Homo sapiens, UniProt P50281); experiment: Bicycle peptide binding to catalytic domain
MMP1 [3] = target: T3, MMP1 (Homo sapiens, UniProt P03956); experiment: Binding to related MMP family member
T3 sequence (P03956 100-469): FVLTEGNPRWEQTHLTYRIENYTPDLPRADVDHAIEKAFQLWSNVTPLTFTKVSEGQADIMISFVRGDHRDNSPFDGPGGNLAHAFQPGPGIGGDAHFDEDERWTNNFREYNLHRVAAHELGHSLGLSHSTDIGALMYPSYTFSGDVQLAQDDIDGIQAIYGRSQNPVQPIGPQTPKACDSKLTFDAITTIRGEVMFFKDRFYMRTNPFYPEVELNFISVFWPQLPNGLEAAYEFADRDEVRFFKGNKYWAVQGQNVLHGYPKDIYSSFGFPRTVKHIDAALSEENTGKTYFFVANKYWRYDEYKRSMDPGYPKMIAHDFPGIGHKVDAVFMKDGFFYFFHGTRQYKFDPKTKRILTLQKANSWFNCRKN

MMP1 [4] = target: T3, MMP1; experiment: Effect on related MMP catalytic activity; format: biochemical; conditions: in vitro
MMP16 = MMP16 (Homo sapiens, UniProt P51512); experiment: Binding to related MMP family member
MMP2 [5] = target: T1, MMP2; experiment: Effect on related MMP catalytic activity; format: biochemical; conditions: in vitro
MMP15 = MMP15 (Homo sapiens, UniProt P51511); experiment: Binding to related MMP family member
[6] = test system: MT1-positive tumor xenografts; experiment: Tumor localization after IV injection into mice bearing MT1-positive tumor xenografts; conditions: mouse, in vivo

Sequence of MMP16 (P51512 120-607, species assumed): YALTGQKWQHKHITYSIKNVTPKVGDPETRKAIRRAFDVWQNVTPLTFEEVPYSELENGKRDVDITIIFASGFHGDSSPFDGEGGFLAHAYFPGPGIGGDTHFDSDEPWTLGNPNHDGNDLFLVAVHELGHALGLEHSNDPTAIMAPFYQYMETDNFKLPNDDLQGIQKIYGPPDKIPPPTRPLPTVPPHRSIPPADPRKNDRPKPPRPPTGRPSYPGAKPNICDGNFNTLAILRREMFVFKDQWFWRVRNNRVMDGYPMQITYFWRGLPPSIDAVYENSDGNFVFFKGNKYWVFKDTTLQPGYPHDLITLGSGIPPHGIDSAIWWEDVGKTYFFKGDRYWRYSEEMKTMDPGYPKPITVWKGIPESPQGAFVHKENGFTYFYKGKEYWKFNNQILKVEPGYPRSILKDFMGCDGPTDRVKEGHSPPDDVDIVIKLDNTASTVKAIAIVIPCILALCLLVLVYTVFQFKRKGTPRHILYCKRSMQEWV
Sequence of MMP15 (P51511 132-669, species assumed): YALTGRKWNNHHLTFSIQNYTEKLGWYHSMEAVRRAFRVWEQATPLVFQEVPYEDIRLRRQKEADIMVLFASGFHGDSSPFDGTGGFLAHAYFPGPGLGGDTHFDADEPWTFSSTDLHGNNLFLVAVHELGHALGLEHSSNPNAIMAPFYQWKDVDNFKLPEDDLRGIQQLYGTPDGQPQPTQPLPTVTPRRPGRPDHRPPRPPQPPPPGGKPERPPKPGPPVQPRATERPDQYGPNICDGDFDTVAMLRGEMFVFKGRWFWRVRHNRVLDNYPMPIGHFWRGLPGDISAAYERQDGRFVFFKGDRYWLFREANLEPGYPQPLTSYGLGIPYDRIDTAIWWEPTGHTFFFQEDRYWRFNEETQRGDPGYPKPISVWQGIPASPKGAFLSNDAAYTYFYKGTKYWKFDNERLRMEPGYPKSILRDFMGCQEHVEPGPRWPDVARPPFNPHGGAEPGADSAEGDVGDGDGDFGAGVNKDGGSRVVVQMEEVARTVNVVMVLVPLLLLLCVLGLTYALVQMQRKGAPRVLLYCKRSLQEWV
Sequence of MMP24 (Q9Y5R2 156-645, species assumed): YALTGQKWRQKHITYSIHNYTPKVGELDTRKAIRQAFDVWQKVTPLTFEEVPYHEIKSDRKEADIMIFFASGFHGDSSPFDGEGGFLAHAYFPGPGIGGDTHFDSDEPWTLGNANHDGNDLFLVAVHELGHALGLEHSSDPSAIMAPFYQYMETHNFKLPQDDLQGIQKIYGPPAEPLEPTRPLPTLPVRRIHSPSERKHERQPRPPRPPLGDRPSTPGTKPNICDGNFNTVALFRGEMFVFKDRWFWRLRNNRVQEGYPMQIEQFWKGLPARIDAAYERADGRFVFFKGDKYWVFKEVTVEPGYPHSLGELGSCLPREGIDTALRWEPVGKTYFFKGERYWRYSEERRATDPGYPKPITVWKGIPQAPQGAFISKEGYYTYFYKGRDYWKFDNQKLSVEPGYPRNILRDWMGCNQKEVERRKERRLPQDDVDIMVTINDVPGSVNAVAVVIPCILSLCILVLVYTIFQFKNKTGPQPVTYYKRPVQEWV
Sequence of MMP9 (P14780 94-707, species assumed): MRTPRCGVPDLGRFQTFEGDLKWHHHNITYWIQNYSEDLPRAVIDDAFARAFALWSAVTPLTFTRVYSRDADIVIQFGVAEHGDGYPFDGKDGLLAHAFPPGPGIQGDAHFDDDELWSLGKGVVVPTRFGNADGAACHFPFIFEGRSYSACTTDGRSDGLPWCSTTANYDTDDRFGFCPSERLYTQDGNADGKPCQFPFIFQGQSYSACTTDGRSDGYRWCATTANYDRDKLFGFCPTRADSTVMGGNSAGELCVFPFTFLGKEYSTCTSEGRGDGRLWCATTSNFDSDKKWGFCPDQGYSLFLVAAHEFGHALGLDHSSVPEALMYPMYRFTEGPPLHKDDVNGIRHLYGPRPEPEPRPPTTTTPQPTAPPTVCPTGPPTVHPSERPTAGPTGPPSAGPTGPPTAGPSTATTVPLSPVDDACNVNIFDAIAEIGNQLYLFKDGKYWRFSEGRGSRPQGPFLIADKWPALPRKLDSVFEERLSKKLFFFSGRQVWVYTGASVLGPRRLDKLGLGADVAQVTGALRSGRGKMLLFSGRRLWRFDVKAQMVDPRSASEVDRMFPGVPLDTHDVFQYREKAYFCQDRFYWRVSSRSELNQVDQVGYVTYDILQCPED

| SMILES | binding toward MMP2 (MMP2 [1]) | binding toward MMP24 (MMP24) | impact on MMP9 catalytic activity (MMP9) | impact on cell migration or invasion [2] | binding toward Pro-MMP1 (Pro-MMP1) | impact on the catalytic activity of the protease (MT1) (MT1) | binding to the catalytic domain (catalytic domain of MT1) | binding toward MMP1 (MMP1 [3]) | impact on MMP1 catalytic activity (MMP1 [4]) | binding toward MMP16 (MMP16) | impact on MMP2 catalytic activity (MMP2 [5]) | binding toward MMP15 (MMP15) | tumor localization [6] |
| --- | --- | --- | --- | --- | --- | --- | --- | --- | --- | --- | --- | --- | --- |
| C[C@H](NC(=O)CN(C)C(=O)CN(C)C(=O)CN(C)C(=O)CN(C)C(=O)CN(C)C(=O)CN(C)C(=O)CN(C)C(=O)CN(C)C(=O)CN(C)C(=O)CN(C)C(=O)CCN)C(=O)N[C@H]1CSCc2cc3cc(c2)CSC[C@H](NC(=O)[C@@H](C)NC(=O)[C@H](Cc2cccc4ccccc24)NC(=O)[C@H](CCC(=O)O)NC(=O)[C@H](CC(N)=O)NC(=O)[C@@H](C)NC1=O)C(=O)N[C@@H](CCC(=O)O)C(=O)N[C@@H](CC(=O)O)C(=O)N[C@@H](Cc1ccccc1)C(=O)N[C@@H](Cc1ccc(O)cc1)C(=O)N[C@@H](CC(=O)O)C(=O)N[C@@H](C(C)(C)C)C(=O)N[C@H](C(N)=O)CSC3 [N241] (H-[βAla][Sar][Sar][Sar][Sar][Sar][Sar][Sar][Sar][Sar][Sar]AC[dA]NE[1Nal][dA]CEDFYD[Tle]C-NH2; linker 13-19-26 via TBMB) | no binding | no binding | no direct impact | no direct impact | no binding | no direct impact | no binding | no binding | no direct impact | no binding | no direct impact | no binding |  |
| C[C@H](NC(=O)CN(C)C(=O)CN(C)C(=O)CN(C)C(=O)CN(C)C(=O)CN(C)C(=O)CN(C)C(=O)CN(C)C(=O)CN(C)C(=O)CN(C)C(=O)CN(C)C(=O)CCN)C(=O)N[C@H]1CSCc2cc3cc(c2)CSC[C@H](NC(=O)[C@@H](C)NC(=O)[C@H](Cc2cccc4ccccc24)NC(=O)[C@H](CCC(=O)O)NC(=O)[C@H](CC(N)=O)NC(=O)[C@@H](C)NC1=O)C(=O)N[C@@H](CCC(=O)O)C(=O)N[C@@H](CC(=O)O)C(=O)N[C@@H](Cc1ccccc1)C(=O)N[C@@H](Cc1ccc(O)cc1)C(=O)N[C@@H](CC(=O)O)C(=O)N[C@@H](C(C)(C)C)C(=O)N[C@H](C(N)=O)CSC3 [^177Lu-loaded N241, metal not drawn] (H-[βAla][Sar][Sar][Sar][Sar][Sar][Sar][Sar][Sar][Sar][Sar]AC[dA]NE[1Nal][dA]CEDFYD[Tle]C-NH2; linker 13-19-26 via TBMB; N-terminus and C-terminus assumed) |  |  |  |  |  |  |  |  |  |  |  |  | rapid tumor localization |
